Measurements taken from article PMC6271966, “Synthesis and Biological Activity of Some Bile Acid-Based Camptothecin Analogues” (Molecules, 2014).
Where two headings read alike, the source gives them in different places.

Legend:
[1] = test system: H22 mouse liver tumours; test: In vivo anti-tumour activity, H22 mouse liver tumour model; conditions: H22 KM mice, i.p. every two days
Experimental: Anti-tumour activity screens of CPT-bile acid analogues were conducted in KM mice with H22 mouse liver tumours. Briefly, female mice weighing 18–22 g were subcutaneously inoculated at the right flank with a tumour cell suspension (1 × 10^6 cells) in 0.2 mL of phosphate-buffered saline. The mice were divided into subgroups 24 h after inoculation. These groups (n = 4) were treated with either vehicle (control), CPT, or the CPT-bile acid analogues. Mice received i.p. treatments once every two days. When the tumour weight of the control group reached 1.0–1.5 g, the mice were killed and the TIR (%) calculated.

[2] = test system: SMMC-7721 cells; test: Fluorescence microscopy of compound entry into SMMC-7721 cells; type: cell-based, human; conditions: 10 or 20 µM, up to 4 h at 37 °C, ultraviolet light
Experimental: (§1) Compound E2 (final concentrations of 10 µM/mL and […]) and CPT (final concentrations of 10 µM/mL and 20 µM/mL) were directly added to the cell culture medium and incubated for 1 h, 2 h or 4 h at 37 °C. The cells were then gently washed three times with physiological saline. Cellular fluorescence was imaged using a fluorescence microscope (Zeiss inverted Microscope Axiovert 200 equipped with a NIKON DS-FiL (Sendai, Japan). The images were taken using ultraviolet light.

[3] = Body weight and surviving mice in the H22 in vivo study; parameters: species or system mouse; conditions: for Mice Number End of Study: 4 mice at start
Experimental: Anti-tumour activity screens of CPT-bile acid analogues were conducted in KM mice with H22 mouse liver tumours. […] These groups (n = 4) were treated with either vehicle (control), CPT, or the CPT-bile acid analogues. Mice received i.p. treatments once every two days.

[4] = test system: human colon cancer cell line (HCT-116); test: MTT cytotoxicity assay, HCT-116; type: cell-based
Experimental: (§2) The cytotoxicity of these compounds against three cancer cell lines was assayed using a conventional microtitre plate tetrazolium cytotoxicity assay. The human hepatoma cancer cell line (SMMC-7721), the colon cancer cell line (HCT-116), and the human breast cancer cell line (MCF-7) were provided by The Chinese Academy of Sciences cell bank. These cells were plated at a density of 1 × 10^5 cells/mL and incubated in a 96-well late for 24 h (37 °C, 5% CO2). The cells were then exposed to various concentrations of the compounds (0.0032, 0.016, 0.08, 0.4, 2, 10, and 50 µM/mL) continuously for 72 h. After this incubation, MTT solution (20 μL, 5 mg/mL) was added to each well and incubated for a further 4 h before removing the media. Formazan crystals were then dissolved by the addition of DMSO (100 μL per well). After mixing, the absorbance was read at 540 nm on a microplate reader. These assays were performed in three independent experiments. Wells containing no drugs, or CPT, were used as negative and positive controls, respectively. The IC50 values, defined as the concentration of compounds that produced a 50% decrease in surviving cells, were calculated using the Logit-method.

[5] = test system: human hepatoma cell line (SMMC-7721); test: MTT cytotoxicity assay, SMMC-7721; type: cell-based
Experimental: as §2

[6] = test system: human breast cancer cell line (MCF-7); test: MTT cytotoxicity assay, MCF-7; type: cell-based
Experimental: as §2

[7] = in this project
Experimental: Preliminary anti-tumour activity studies of E2, G4, and H2 were evaluated in vivo in a mouse liver adenocarcinoma model (H22) and compared with CPT.

[8] = Lactone stability in rat blood serum (HPLC); type: in vitro ADME
Experimental: Compounds E2, F2, G2, and H2 were dissolved in DMSO (100 μL, 4 mM/L) and incubated in rat blood serum (4 mL) at 37 °C. Aliquots were taken at different time points (0, 2, 4, 6, 8, 10, 12, and 24 h) and examined by HPLC, using CPT as the reference.

[9] = test system: MCF-7 cells; test: Fluorescence microscopy of compound entry into MCF-7 cells; type: cell-based, human; conditions: data not shown
Experimental: as §1

For `CC[C@@]1(O)C(=O)OCc2c1cc1n(c2=O)Cc2cc3ccccc3nc2-1` [CPT, Camptothecin], the “TIR (%)” value ([1]; dose 27.45 × 3 µmol/kg) was 67.26%, the “Cellular fluorescence (accumulation in cells)” value (“Cellular fluorescence” for short) [2] was “no distinct fluorescence” and the “Mice Number End of Study” value ([3]; dose 27.45 × 3 µmol/kg i.p.) was 3. For the same compound, the “Body Weight (g) End of Study” value ([3]; dose 27.45 × 3 µmol/kg i.p., start of study 21.4 g) was 18.6 g, the IC50 ([4]; MTT, 72 h exposure, HCT-116, read-out: In Vitro Cytotoxicity (IC50, µM) HCT-116) was 0.52 µM and the IC50 ([5]; MTT, 72 h exposure, SMMC-7721, read-out: In Vitro Cytotoxicity (IC50, µM) SMMC7721) was 0.56 µM. For the same compound, the IC50 ([6]; MCF7, MTT, 72 h exposure, MCF-7, read-out: In Vitro Cytotoxicity (IC50, µM) MCF-7) was 0.57 µM, the “maximum dose which the mouse can tolerate” value [7] was 27.45 µmol/kg and the half-life at 97.6 µM ([8]; rat blood serum, 37 °C, HPLC, up to 24 h, read-out: Half-Life (converted)) was 2.3 h. The “Cellular fluorescence” value [9] was “no fluorescent signal”.
For `CC[C@@]1(OC(=O)CNC(=O)CCC(C)C2CCC3C4CCC5C[C@H](O)CC[C@]5(C)C4C[C@H](O)[C@]23C)C(=O)OCc2c1cc1n(c2=O)Cc2cc3ccccc3nc2-1` (stereo partly drawn) [Compound E2, Camptothecin-20 (S)-O-glycine Ester-[N-(3′α,12′α-dihydroxy-24′-carbonyl-5′β-cholane)]], the “TIR (%)” value ([1]; dose 19.23 × 3 µmol/kg) was 4.09%, the “TIR (%)” value ([1]; dose 38.45 × 3 µmol/kg) was 16.10% and the “TIR (%)” value ([1]; dose 57.69 × 3 µmol/kg) was 40.13%. For the same compound, the “Cellular fluorescence” value [2] was “accumulated in the SMMC-7721 cells”, the “Mice Number End of Study” value ([3]; dose 19.23 × 3 µmol/kg i.p.) was 4 and the “Body Weight (g) End of Study” value ([3]; dose 19.23 × 3 µmol/kg i.p., start of study 19.9 g) was 21.9 g. The “Mice Number End of Study” value ([3]; dose 38.45 × 3 µmol/kg i.p.) was 4, the “Body Weight (g) End of Study” value ([3]; dose 38.45 × 3 µmol/kg i.p., start of study 20.5 g) was 21.5 g and the “Mice Number End of Study” value ([3]; dose 57.69 × 3 µmol/kg i.p.) was 4. For the same compound, the “Body Weight (g) End of Study” value ([3]; dose 57.69 × 3 µmol/kg i.p., start of study 20.5 g) was 20.6 g, the IC50 ([4]; HCT-116, 72 h, read-out: In Vitro Cytotoxicity (IC50, µM) HCT-116) was 15.8 µM and the IC50 ([5]; SMMC-7721, 72 h, read-out: In Vitro Cytotoxicity (IC50, µM) SMMC7721) was 0.36 µM. For the same compound, the IC50 ([6]; MCF7, 72 h, read-out: In Vitro Cytotoxicity (IC50, µM) MCF-7) was 150 µM, the melting point was 203 to 204 °C and the half-life at 97.6 µM ([8]; rat, serum) was over 24 h. The “Cellular fluorescence” value [9] was “no fluorescent signal”.
